Experimental data published in US8110365B2, “Compositions and methods for detecting and treating renal injury and inflammation” (Rhode Island Hospital, priority 2006, dated 2012).
Entries after “also recorded” stand apart in the source; their conditions may differ.

Tests used:
[1] = test system: NF-κB p65 binding to E-selectin promoter; assay: DNA affinity precipitation and ChIP of NF-κB p65 at the E-selectin promoter in HUVEC; type: cell-based, human; conditions: 4 h after treatment
Procedure: To explore the role of GSK3b in HGF suppression of inflammation, we examined the effect of HGF on NF-κB activation in endothelial cells (FIG. 8A˜C) and TEC (FIG. 8D). […] (FIG. 8A). To determine whether HGF modulation of NF-κB transcriptional activity alters target gene (E-selectin) levels, DNA affinity precipitation assay was carried out at 4 h after treatment. Proteins in cell lysates were pulled down by biotin labeled oligonucleotides with the sequence of the E-selectin promoter region spanning the κB elements. […] To further examine the effect of HGF on NF-κB binding to the E-selectin gene in vivo, chromatin immunoprecipitation (ChIP) was applied at 4 h after treatments (FIG. 8C).

NFkB p65 [2] = assay: TNF-a induced NFkB p65 phosphorylation in HKC cells (immunoblot); type: cell-based, human
Procedure: (§1) Human proximal TEC (HKC-8) (courtesy of Dr. L. Racusen of John Hopkins University, Baltimore, Md.) were maintained in Dulbecco's modified Eagle's medium (DMEM)/F12 supplemented with 5% fetal bovine serum (FBS). Cells were plated at approximately 70% confluence in the media containing 5% FBS for 24 h and then underwent serum starvation for another 24 h. Human recombinant HGF and human recombinant TNF-α (R&D systems, Minneapolis, Minn.) were added to the culture with fresh serum-free medium at a final concentration of 20 ng/ml and 2 ng/ml respectively, or otherwise as indicated. Cell viability was assessed by Trypan blue exclusion. At different time points, cells and conditioned media were harvested for further investigation.
(§2) After different treatments, HKC cells were washed with PBS and lysed with RIPA buffer supplemented with protease inhibitors [1% Nonidet P-40, 0.1% SDS, 100 ug/ml phenylmethysulfonyl fluoride (PMSF), 0.5% sodium deoxycholate, ImM sodium orthovanadate, 2 ug/ml aprotin, 2 ug/ml leupeptin, 5mM EDTA in PBS]. Protein concentration was determined by using a bicinchoninic acid protein assay kit (Sigma). All samples with equal amounts of total protein (50 ug/ml) were fractionated by 7.5˜15% SDS-polyacrylamide gels under reducing condition and analyzed by western immunoblot as described previously (30). The antibodies against p-GSK3b, p-NFkB p65, p-IkBa were purchased from Cell Signaling Technology (Beverly, Mass.) and those for GSK3b, hemagglutin were from Santa Cruz Biotechnology (Santa Cruz, Calif.).

NFkB target genes = assay: Real time RT-PCR of NFkB target genes in TNF-a stimulated HKC cells; type: cell-based, human
Procedure: Total RNA was extracted from approximately 1×10^6 cultured HKC cells using TRIzol solution (Invitrogen, Carlsbad, Calif.) according to the instructions specified by the manufacturer. RNA was then diluted to 3μg/μl in RNase free distilled water. The first strand cDNA was prepared using 3 μg RNA, Superscript RT reverse transcriptase (Invitrogen) and oligo (dT) primer according to the manufacture's instruction. Quantitative real time PCR was carried out on a Stratagene Mx4000® multiplex quantitative PCR system (Stratagene, La Jolla, Calif.) using primers specific for human MCP-1, RANTES, IkBa, Bcl-2 and GAPDH. All reactions were performed in triplicate with Brilliant® SYBR® Green QPCR Master Mix (Stratagene). Fluorescence values of SYBR Green I dye, representing the amount of product amplified at that point in the reaction, were recorded in real time at both the annealing step and the extension step of each cycle. The Ct value, defined as the point at which the fluorescence signal was statistically significant above background, was calculated for each amplicon in each experimental sample using Stratagene Mx4000 software. This value was then used to determine the relative amount of amplification in each sample by interpolating from the standard curve. Transcript level of each specific gene was normalized to GAPDH amplification.

endothelial E-selectin = assay: Acute inflammation induced by bolus injection of TNF-α in vivo; conditions: infusion of exogenous HGF
GSK3b and NFkB p65 [3] = molecular target: T1, GSK3b and NFkB p65 (Homo sapiens, UniProt P49841); assay: Co-immunoprecipitation of GSK3b and NFkB p65 in HKC cells; type: cell-based
T1 construct: whole cell lysates were subjected to immunoprecipitation by anti-GSK3b or anti-p65 antibody; endogenous in cells; host or cells: HKC-8
Procedure: (§3) Immunoprecipitation was carried out by using an established method as described previously. Briefly, cells were washed with ice cold PBS and then lysed with RIPA buffer. After preclearing with normal IgG, cell lysates with equal amount of total protein (0.5 mg of protein) were incubated overnight at 4° C. with 4 μg specific agarose-conjugated antibodies. The precipitated complexes were collected, washed, and separated on SDS-polyacrylamide gels and blotted with various antibodies as indicated.

GSK3b and NFkB p65 [4] = molecular target: T2, GSK3b and NFkB p65 (Homo sapiens, UniProt P49841, S9A); assay: as above; type: cell-based; conditions: HKC cells expressing S9A, TNF-a stimulation
T2 construct: endogenous in cells; host or cells: HKC-8
Procedure: as §3

NFkB p65 [5] = assay: ChIP of NFkB p65 at MCP-1 and RANTES promoters in HKC cells; type: cell-based, human
Source text: The in situ interaction between NFκB and its target genes in HKC cells was examined by ChIP assay (35) using a commercially available kit (Upstate Biotechnology, Charlottesville, Va.) according to manufacturer's instructions. Briefly, HKC cells were fixed and crosslinked with 4% formaldehyde. After collection of cell pellets and sonication, aliquots of the samples were set aside as input fraction and the rest subjected to immunoprecipitation using an anti-NFκB p65 antibody or preimmune IgG and Protein A agarose used to pull down the immune complexes. After elution, precipitated chromatin as well as the input fraction was heated at 65° C. to reverse crosslinks and the DNA extracted with Qiagen PCR purification kit (Qiagen, Valencia, Calif.). DNA sequences spanning the κB responsive elements in the promoter region were amplified by PCR using specific primers (MCP-1, forward 5′-[…]-3′ (SEQ ID NO: 1), reverse 5′-[…]-3′(SEQ ID NO: 2), Genbank accession number Y18933; RANTES, forward 5′-[…]-3′ (SEQ ID NO: 3), reverse 5′-[…]-3′ (SEQ ID NO: 4), Genbank accession number S64885) for a number of cycles in the exponential phase as estimated in pilot experiments. DNA samples extracted from input fractions were amplified in parallel for normalization. PCR products resolved in ˜1.5 to 2% agarose gels were photographed under ultraviolet light.

GSK3b = GSK3b (Homo sapiens, UniProt P49841); assay: Inhibitory phosphorylation of GSK3b in HKC cells (immunoblot); type: cell-based; parameters: endogenous in cells; host or cells: HKC-8
Procedure: as §1, §2

PI3K-Akt = PI3K-Akt activation in HKC / TEC; type: cell-based, human

T2 sequence (P49841 whole entry S9A): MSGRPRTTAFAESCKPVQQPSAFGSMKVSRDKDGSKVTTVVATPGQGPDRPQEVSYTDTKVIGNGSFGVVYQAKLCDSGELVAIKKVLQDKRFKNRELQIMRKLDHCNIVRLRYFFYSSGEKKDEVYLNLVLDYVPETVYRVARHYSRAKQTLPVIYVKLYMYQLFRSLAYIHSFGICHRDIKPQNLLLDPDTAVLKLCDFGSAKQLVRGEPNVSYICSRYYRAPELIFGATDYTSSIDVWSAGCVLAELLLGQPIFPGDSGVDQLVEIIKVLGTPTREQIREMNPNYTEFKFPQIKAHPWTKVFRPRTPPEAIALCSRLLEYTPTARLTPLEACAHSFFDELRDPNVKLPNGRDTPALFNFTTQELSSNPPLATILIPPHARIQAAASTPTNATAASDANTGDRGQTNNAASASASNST
T1 sequence (P49841 whole entry): as the sequence (P49841 whole entry S9A) above, with A9S counted along it
GSK3b, sequence (P49841 whole entry): as the sequence (P49841 whole entry S9A) above, with A9S counted along it

- TNF-a induced co-precipitation of phosphorylated p65 (Ser468) with GSK3b (GSK3b and NFkB p65 [3]; HKC cells, immunoprecipitation by anti-GSK3b): abrogated TNFa induced co-precipitation
Substance: HGF: Human recombinant HGF (R&D systems); induces inhibitory phosphorylation of GSK3b
- TNF-α induced NF-κB binding to E-selectin promoter / gene [1]: counteracted NF-kB interaction with kB elements at the E-selectin gene level; also recorded: significantly blunted TNF-α induced NF-κB binding to E-selectin promoter sequence; also recorded: prevents NF-κB mediated transcription of E-selectin; also recorded: blunts NF-kB activation and its target E-selectin gene
- TNF-a induced p65 phosphorylation at other sites (S276, S536) (NFkB p65 [2]; HKC cells): had minimal effect on S276
- HGF inhibition of TNF-a-induced phosphorylation of p65 at S468 (NFkB p65 [2]; HKC cells expressing GSK3b S9A): strikingly abolished in cells expressing S9A; also recorded: obliterated in HKC cells expressing GSK3b S9A
- TNF-a induced p65 phosphorylation at S468 (NFkB p65 [2]; HKC cells, TNF-a 2 ng/ml, VPA 1 mM, 10 uM for 60 minutes): markedly abolished TNF-a induced phosphorylation of S468 in a time dependent fashion; also recorded: suppresses NFkB phosphorylation specifically at S468
- suppressive effect of HGF on TNF-a induced MCP-1 and RANTES mRNA expression (NFkB target genes; HKC cells expressing S9A): obliterated in cells expressing S9A; also recorded: obliterated in cells expressing the mutant uninhibitable GSK3b
- suppressive effect of HGF on TNF-a induced MCP-1 and RANTES mRNA expression (NFkB target genes; HKC cells transfected with EV or WT): present in cells transfected with EV or WT
- TNF-a induced mRNA expression of IkBa and Bcl-2 (NFkB target genes; HKC cells, 12 h): not remarkably affected
- TNF-a induced mRNA expression of MCP-1 and RANTES (NFkB target genes; HKC cells, 12 h): strikingly attenuated TNF-a induced mRNA expression of MCP-1 and RANTES; also recorded: selectively regulates TNF-a induced transcription of specific NFkB target genes
- endothelial expression of E-selectin (endothelial E-selectin): reduced endothelial expression of E-selectin induced by bolus injection of TNF-α
- sequestration of circulating macrophages in the kidney (endothelial E-selectin): less sequestration of circulating macrophages in the kidney
- TNF-a induced GSK3b to p65 interaction (GSK3b and NFkB p65 [3]; HKC cells, immunoprecipitation by anti-p65): remarkably overridden by HGF; also recorded: suppressive effect on physical interaction between GSK3b and RelA/p65
- co-precipitation of HA-tagged GSK3b with p65 / phosphorylated p65(S468) (GSK3b and NFkB p65 [3]; WT transfected HKC cells, TNF-a stimulation): markedly reduced HA co-precipitation with p65 in the WT transfected cells; also recorded: significantly attenuated by HGF in WT transfected cells
- co-precipitation of HA-tagged GSK3b with p65 / phosphorylated p65(S468) (GSK3b and NFkB p65 [4]): considerably abrogated in HKC cells expressing S9A; also recorded: substantially blunted in cells expressing S9A; also recorded: overridden in cells expression the mutant uninhibitable GSK3b
- TNF-a induced recruitment of NFkB p65 to MCP-1 and RANTES promoters (NFkB p65 [5]): substantially attenuated by concomitant HGF treatment; also recorded: markedly attenuated
- inhibitory phosphorylation of GSK3b (S9) (GSK3b): inhibited GSK3, by phosphorylation at Ser-9; also recorded: induce GSK3b phosphorylation at Ser9; also recorded: induces inhibitory phosphorylation of GSK3b at S9
- PI3K-Akt activation (PI3K-Akt): elicited PI3K-Akt activation; also recorded: activates PI3K-Akt in TEC
